Patent US5869469A, “Phosphonocarboxylate compounds for treating amyloidosis” (Queen's University at Kingston, priority 1997, dated 1999)
Structures can show the parent of a compound that is named as a salt.

How the values were obtained:
[1] = test system: Aβ peptide; assay: in vitro circular dichroism (CD) assay of β-sheet secondary structure formation; conditions: Aβ peptide with test compound in Tris-HCl buffer pH 7, incubated 0 or 24 hours at 37° C., CD at 25° C.
Excerpt: It is known that amyloidogenic peptides or proteins which have formed amyloid deposits or plaques have a significant amount of β-sheet secondary structure, while the unaggregated peptide or protein generally has less β-sheet structure. It is believed that the ability of a candidate therapeutic compound to prevent the formation of β-sheet secondary structure in vitro may be correlated with the ability of the compound to inhibit amyloidogenesis in vivo. Accordingly, phosphonate compounds were assayed for ability to prevent the formation of β-sheet secondary structure in an in vitro circular dichroism (CD) assay.
Aβ is a 40 amino acid protein associated with Alzheimer's disease. Aβ peptide was prepared and purified as described in Fraser, P. E. et al., Biochemistry 31, 10716 (1992). Briefly, the peptide was synthesized by standard solid-phase techniques and purified by HPLC according to well known procedures.
All CD experiments were performed on a commercially available instrument. The cell was maintained at 25° C. using a circulating water bath. Computer-averaging of traces was performed to improve signal-to-noise ratios. The solvent signal was subtracted. CD experiments were performed for each test compound according to the following procedure:
A stock solution of purified peptide was made by dissolving the peptide in phosphate-buffered saline (PBS) to a concentration of 2 mg/ml. […]

[2] = test system: amyloid peptide; assay: amyloid peptide solubility assay (overnight incubation, centrifugation, soluble peptide determination); conditions: compound and amyloid peptide incubated together overnight, then centrifugation; preliminary result
[3] = test system: cortical/hippocampal neuronal cultures; assay: neurotoxicity in cortical/hippocampal neuronal cultures; assay type: cell-based; conditions: concentrations ranging from 10^-7 M to 10^-4 M

O=C(O)CCOCCP(=O)(O)O [2-carboxyethoxyethylphosphonic acid]
β-sheet formation (minimum at 218 nm in CD spectrum versus control) [1]: did not appear to prevent β-pleated sheet formation

O=C(O)P(=O)(O)O [Phosphonoformate sodium salt, Trisodium phosphonoformate]
β-sheet formation (minimum at 218 nm in CD spectrum versus control) [1]: significantly and reproducibly reduce the amount of β-sheet formation
effect on amyloid peptide solubility (amount of soluble peptide) [2]: little effect on amyloid peptide solubility
neurotoxicity [3]: no significant toxicity
